Target: T1, ERα (Homo sapiens, UniProt P03372)
T1 construct: host or cells: MCF7
T1 sequence (P03372 1-595): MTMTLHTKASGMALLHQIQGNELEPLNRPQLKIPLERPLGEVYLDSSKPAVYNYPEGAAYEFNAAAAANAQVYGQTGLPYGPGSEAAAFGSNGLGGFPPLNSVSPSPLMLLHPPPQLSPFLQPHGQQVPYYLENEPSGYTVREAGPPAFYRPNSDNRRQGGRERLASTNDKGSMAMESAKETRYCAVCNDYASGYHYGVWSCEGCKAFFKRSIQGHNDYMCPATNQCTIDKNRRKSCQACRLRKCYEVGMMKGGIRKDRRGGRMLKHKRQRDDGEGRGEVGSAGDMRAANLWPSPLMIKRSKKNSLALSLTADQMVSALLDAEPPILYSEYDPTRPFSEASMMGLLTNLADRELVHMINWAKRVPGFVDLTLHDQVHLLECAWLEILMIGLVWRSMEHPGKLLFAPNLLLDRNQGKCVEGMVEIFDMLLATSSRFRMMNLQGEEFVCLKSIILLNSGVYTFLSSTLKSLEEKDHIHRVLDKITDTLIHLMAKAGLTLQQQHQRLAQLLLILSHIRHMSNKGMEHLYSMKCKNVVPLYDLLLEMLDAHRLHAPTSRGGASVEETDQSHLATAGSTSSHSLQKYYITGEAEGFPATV
Experiment: Estrogen receptor degradation activity: breast cancer cell ERα in cell western assay (MCF7 cells)
Type: cell-based
Conditions: for % Degradation At 0.3 μM: 4 hours, relative to fulvestrant 0.1 μM positive control; for DC50: 4 hours post compound addition, concentration which degrades 50% of the estrogen receptor, read-out: Degradation IC50
Summary of the method: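 In-cell western readout: ERα immunofluorescence (Alexa 488) normalised to DNA signal (Syto-64) after formalin fixation. Compounds dosed for 4 h on MCF7 cells in stripped-serum, phenol-red-free medium over nine 1:5 steps, 0.3 to […] final; fulvestrant 0.1 μM control. IC50 in nM for 50% ERα degradation.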

Question: What does the source list for `Cc1c(C2=C(c3ccc(C=C4CN(CCC(F)F)C4)cc3)c3ccc(C(=O)O)cc3CCC2)ccc(Cl)c1F` [Example 127, 8-(4-chloro-3-fluoro-2-methylphenyl)-9-(4-((1-(3,3-difluoropropyl)azetidin-3-ylidene)methyl)phenyl)-6,7-dihydro-5H-benzo[7]annulene-3-carboxylic acid]?
Answer: % Degradation At 0.3 μM: 93%; DC50: 0.6 nM

Question: Which results are given for `O=C(O)c1ccc2c(c1)CCCC(c1ccc(Cl)cc1C(F)(F)F)=C2c1ccc(C=C2CN(CCC(F)F)C2)cc1` [Example 128, 8-(4-chloro-2-(trifluoromethyl)phenyl)-9-(4-((1-(3,3-difluoropropyl)azetidin-3-ylidene)methyl)phenyl)-6,7-dihydro-5H-benzo[7]annulene-3-carboxylic acid]?
Answer: % Degradation At 0.3 μM: 93%; DC50: 1.1 nM

Question: What does the source list for `O=C(O)c1ccc2c(c1)CCCC(c1cccc(C(F)(F)F)c1F)=C2c1ccc(C=C2CN(CCC(F)F)C2)cc1` [Example 129, 9-(4-((1-(3,3-difluoropropyl)azetidin-3-ylidene)methyl)phenyl)-8-(2-fluoro-3-(trifluoromethyl)phenyl)-6,7-dihydro-5H-benzo[7]annulene-3-carboxylic acid]?
Answer: % Degradation At 0.3 μM: 94%; DC50: 1 nM

Question: `Cc1c(F)ccc(C2=C(c3ccc(C=C4CN(CCC(F)F)C4)cc3)c3ccc(C(=O)O)cc3CCC2)c1C` [Example 130, 9-(4-((1-(3,3-difluoropropyl)azetidin-3-ylidene)methyl)phenyl)-8-(4-fluoro-2,3-dimethylphenyl)-6,7-dihydro-5H-benzo[7]annulene-3-carboxylic acid] was tested. Which “% Degradation At 0.3 μM” value did it give?
Answer: 96%

Question: What about the DC50 of the same molecule?
Answer: 1.6 nM

Question: Which “% Degradation At 0.3 μM” value does the source give for `Cc1cccc(C2=C(c3ccc(C=C4CN(CCC(F)F)C4)cc3)c3ccc(C(=O)O)cc3CCC2)c1Cl` [Example 131, 8-(2-chloro-3-methylphenyl)-9-(4-((1-(3,3-difluoropropyl)azetidin-3-ylidene)methyl)phenyl)-6,7-dihydro-5H-benzo[7]annulene-3-carboxylic acid] here?
Answer: 95%

Question: And the DC50?
Answer: 1.1 nM

Question: For `Cc1cc(Cl)ccc1C1=C(c2ccc(C=C3CN(CCC(F)F)C3)cc2)c2ccc(C(=O)O)cc2CCC1` [Example 132, 8-(4-chloro-2-methylphenyl)-9-(4-((1-(3,3-difluoropropyl)azetidin-3-ylidene)methyl)phenyl)-6,7-dihydro-5H-benzo[7]annulene-3-carboxylic acid], which “% Degradation At 0.3 μM” value is on record?
Answer: 95%

Question: And the DC50?
Answer: 0.8 nM

Question: For `O=C(O)c1ccc2c(c1)CCCC(c1cccc(C(F)(F)F)c1Cl)=C2c1ccc(C=C2CN(CCC(F)F)C2)cc1` [Example 133, 8-(2-chloro-3-(trifluoromethyl)phenyl)-9-(4-((1-(3,3-difluoropropyl)azetidin-3-ylidene)methyl)phenyl)-6,7-dihydro-5H-benzo[7]annulene-3-carboxylic acid], which “% Degradation At 0.3 μM” value is on record?
Answer: 92%

Question: And the DC50?
Answer: 1 nM

Question: What does the source list for `Cc1c(C2=C(c3ccc(C=C4CN(CCC(F)F)C4)cc3)c3ccc(C(=O)O)cc3CCC2)cccc1C(F)(F)F` [Example 134, 9-(4-((1-(3,3-difluoropropyl)azetidin-3-ylidene)methyl)phenyl)-8-(2-methyl-3-(trifluoromethyl)phenyl)-6,7-dihydro-5H-benzo[7]annulene-3-carboxylic acid]?
Answer: % Degradation At 0.3 μM: 93%; DC50: 1.1 nM

Question: How did the “% Degradation At 0.3 μM” value turn out when `O=C(O)c1ccc2c(c1)CCCC(c1ccc(F)c(F)c1F)=C2c1ccc(C=C2CN(CCCF)C2)cc1` [Example 135, 9-(4-((1-(3-fluoropropyl)azetidin-3-ylidene)methyl)phenyl)-8-(2,3,4-trifluorophenyl)-6,7-dihydro-5H-benzo[7]annulene-3-carboxylic acid] was run?
Answer: 96%

Question: What about the DC50 of the same molecule?
Answer: 0.5 nM

Question: What does the source list for `Cc1ccc(C(F)(F)F)cc1C1=C(c2ccc(C=C3CN(CCCF)C3)cc2)c2ccc(C(=O)O)cc2CCC1` [Example 136, 9-(4-((1-(3-fluoropropyl)azetidin-3-ylidene)methyl)phenyl)-8-(2-methyl-5-(trifluoromethyl)phenyl)-6,7-dihydro-5H-benzo[7]annulene-3-carboxylic acid]?
Answer: % Degradation At 0.3 μM: 92%; DC50: 0.8 nM

From patent publication US12612360B2 (Sanofi, priority 2020, dated 2026)
